Assay results as given in patent US6562609B1, “Cholesterol 25-hydroxylase” (Board of Regents, The University of Texas System, priority 1998, dated 2003).

Legend:
[1] = target: T1, cholesterol 25-hydroxylase (Mus musculus, UniProt Q9Z0F5); test: 25-hydroxylase activity in CHOP cells transfected with the murine cDNA; format: cell-based; conditions: treatment of transfected CHOP cells
T1 construct: a full-length mouse 25-hydroxylase cDNA fragment from plasmid pCMV-m25; expressed in transfected cells; host or cells: CHOP cells (CHO derivative expressing polyoma middle T antigen)
T1 sequence (Q9Z0F5 1-298): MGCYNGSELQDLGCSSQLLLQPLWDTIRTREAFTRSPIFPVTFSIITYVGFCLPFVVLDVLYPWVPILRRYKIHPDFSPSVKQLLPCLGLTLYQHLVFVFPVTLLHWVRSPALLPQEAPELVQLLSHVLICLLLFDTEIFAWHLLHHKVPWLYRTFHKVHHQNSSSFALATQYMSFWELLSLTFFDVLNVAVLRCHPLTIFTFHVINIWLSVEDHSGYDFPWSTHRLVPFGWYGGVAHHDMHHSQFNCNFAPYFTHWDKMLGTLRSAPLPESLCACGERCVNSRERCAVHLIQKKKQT
Protocol: (§1) Measurement of cholesterol 25-hydroxylase activity in whole cells—The transfection medium containing the cationic lipid was aspirated and replaced with 3 ml of Medium B (DMEM containing 10% newborn calf lipoprotein-poor serum, 100 u/ml penicillin, and 100 μg/ml streptomycin sulfate) supplemented with 5 μI of [4-^14C]cholesterol (56.6 mCi/mmol; 0.040 μCi/μl; New England Nuclear, Boston, Mass.). Cells were incubated for a further 60 h at 37° C. in an atmosphere of 8.8% CO2.
(§2) Media from the transfected cells were collected and extracted with 8 ml of chloroform:methanol (2:1, v/v). The organic phase from each sample was taken to dryness under a stream of nitrogen and residues were dissolved in 40 μl aliquots of chloroform:methanol (2:1, v/v) and applied to 20×20 cm prescored LK5DF silica gel TLC plates (Whatman, Hillsboro, Oreg.) with preadsorbent layers. The plates were developed in ethyl acetate:toluene (4:6, v/v), and exposed to a Fuji BAS-MP phosphoimager plate overnight. Phosphoimage analysis was then performed on a Fuji BAS 1000 apparatus.
Inhibitor Studies—Transfection of CHOP cells was carried out as described above with the following exceptions. […] Cells and/or cells plus medium were harvested at the indicated times, extracted, and the conversion of substrate into [4-^14C]25-hydroxycholesterol product was determined by thin layer chromatography as described above. […]

[2] = target: T2, human 25-hydroxylase (Homo sapiens, UniProt O95992); test: 25-hydroxylase activity in 293 cells transfected with the human cDNA; format: cell-based; conditions: treatment of transfected 293 cells
T2 construct: expressed in transfected cells; host or cells: human embryonic kidney 293 cells
T2 sequence (O95992 1-272): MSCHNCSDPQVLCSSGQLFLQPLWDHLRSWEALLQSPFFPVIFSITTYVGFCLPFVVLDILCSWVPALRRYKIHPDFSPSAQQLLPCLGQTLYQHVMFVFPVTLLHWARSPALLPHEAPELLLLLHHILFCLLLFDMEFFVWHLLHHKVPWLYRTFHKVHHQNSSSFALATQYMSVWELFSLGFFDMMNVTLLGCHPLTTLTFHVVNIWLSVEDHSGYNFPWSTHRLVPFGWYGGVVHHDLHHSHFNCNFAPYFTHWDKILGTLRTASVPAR
Protocol: as §1, §2
This EST was used to isolate a near full-length cDNA encoding the human 25-hydroxylase as described in Experimental Procedures. Transfection into 293 cells of the human cDNA cloned in a pCMV6 vector produced abundant 25-hydroxylase enzyme activity.

[3] = system: cholesterol 25-hydroxylase; test: Inhibition of cholesterol 25-hydroxylase by sterols in transfected cells; format: cell-based; conditions: for rank order of inhibition of cholesterol 25-hydroxylase: 3 μM [14C]cholesterol, cells treated with 2-hydroxypropyl-β-cyclodextrin; for decrease of enzyme activity: sterol 3 μM, equimolar with [14C]cholesterol (3 μM)
Protocol: as §2
Inhibitor Studies—Transfection of CHOP cells was carried out as described above with the following exceptions. Cells were plated on Day 0 at a density of 150,000 cells/well in 6-well plates containing Medium C. On Day 1, cells were transfected with 2.7 μg of the indicated cholesterol 25-hydroxylase expression plasmid and 0.3 μg of pVA-1, using 12 μl of pfx-8 as transfection lipid. After 4 h, the lipid-DNA mixture was removed and 1.5 ml of Medium D was added. In certain experiments, this medium was aspirated and replaced on Day 2 with 1 ml per well of a 20 mg/ml solution of 2-hydroxypropyl-β-cyclodextrin (Sigma) in DMEM/Ham's F12 (1:1) medium and returned to the incubator. The cyclodextrin containing medium was replaced after 1-1.5 h with 1.5 ml of Medium D, and substrate and inhibitors were then added, each in a volume of 4.5 μl of ethanol. The concentration of [4-^14C]cholesterol substrate (specific activity=26.8 mCi/mmol) was 3 μM. Inhibitors were added to final concentrations of 3, 10 or 30 μM. Cells and/or cells plus medium were harvested at the indicated times, extracted, and the conversion of substrate into [4-^14C]25-hydroxycholesterol product was determined by thin layer chromatography as described above. The inhibitors used were cholesterol(5-cholesten-3β-ol), cholestanol (5α-cholestan-3β-ol), epicholesterol (5-cholesten-3α-ol), coprostanol(5β-cholestan-3β-ol), desmosterol(5,24-cholestadien-3β-ol), β-sitosterol(5-cholesten-24β-ethyl-3β-ol ), 25-hydroxycholesterol(cholest-5-ene-3β,25-diol), and 27-nor-25-oxocholesterol(27-nor-25-oxo-5-cholesten-3β-ol). All steroids were purchased from Steraloids Inc. (Wilton, N.H.), except cholesterol, which was from Sigma (St. Louis, Mo.).
We next tested the ability of different sterols to inhibit cholesterol 25-hydroxylase. In these experiments, 293 cells were transfected with a 25-hydroxylase cDNA, treated with 2-hydroxypropyl-β-cyclodextrin to remove endogenous cholesterol, and then incubated with 3 μM [^14C]cholesterol and the indicated concentrations of unlabeled inhibitor sterol. The rank order of inhibition for the […] sterols tested was desmosterol>cholestanol>25-hydroxycholesterol>epicholesterol>sitosterol>>coprostanol=25-oxo-27-nor-cholesterol. […] In the case of desmosterol (5,24-cholestadien-3β-ol), which can not be 25-hydroxylated due to the Δ^24 bond, this sterol appears to act as a true inhibitor.

[4] = system: gene transcription; conditions: compared with 24- and 27-hydroxycholesterol, in vitro; cited from earlier work

2-hydroxypropyl-β-cyclodextrin
stimulation of 25-hydroxylase activity [1]: approximately 10 fold | stimulation of 25-hydroxylase activity [2]: approximately five-fold

C[C@H](CCCC(C)(C)O)[C@H]1CC[C@H]2[C@@H]3CC=C4C[C@@H](O)CC[C@]4(C)[C@H]3CC[C@]12C [25-hydroxycholesterol, cholest-5-ene-3β,25-diol]
rank order of inhibition of cholesterol 25-hydroxylase [3]: desmosterol>cholestanol>25-hydroxycholesterol>epicholesterol>sitosterol>>coprostanol=25-oxo-27-nor-cholesterol | potency as regulator of gene transcription among natural oxysterols [4]: most potent regulator of gene transcription

CC(=O)CCC[C@@H](C)[C@H]1CC[C@H]2[C@@H]3CC=C4C[C@@H](O)CC[C@]4(C)[C@H]3CC[C@]12C [25-oxo-27-nor-cholesterol, 27-nor-25-oxo-5-cholesten-3β-ol]
rank order of inhibition of cholesterol 25-hydroxylase [3]: desmosterol>cholestanol>25-hydroxycholesterol>epicholesterol>sitosterol>>coprostanol=25-oxo-27-nor-cholesterol

CC(C)CCC[C@@H](C)[C@H]1CC[C@H]2[C@@H]3CC[C@H]4C[C@@H](O)CC[C@]4(C)[C@H]3CC[C@]12C [cholestanol, 5α-cholestan-3β-ol]
rank order of inhibition of cholesterol 25-hydroxylase [3]: desmosterol>cholestanol>25-hydroxycholesterol>epicholesterol>sitosterol>>coprostanol=25-oxo-27-nor-cholesterol

CC(C)CCC[C@@H](C)[C@H]1CC[C@H]2[C@@H]3CC[C@@H]4C[C@@H](O)CC[C@]4(C)[C@H]3CC[C@]12C [coprostanol, 5β-cholestan-3β-ol]
rank order of inhibition of cholesterol 25-hydroxylase [3]: desmosterol>cholestanol>25-hydroxycholesterol>epicholesterol>sitosterol>>coprostanol=25-oxo-27-nor-cholesterol | decrease of enzyme activity [3]: did not inhibit the enzyme

CC(C)=CCC[C@@H](C)[C@H]1CC[C@H]2[C@@H]3CC=C4C[C@@H](O)CC[C@]4(C)[C@H]3CC[C@]12C [desmosterol, 5,24-cholestadien-3β-ol]
rank order of inhibition of cholesterol 25-hydroxylase [3]: desmosterol>cholestanol>25-hydroxycholesterol>epicholesterol>sitosterol>>coprostanol=25-oxo-27-nor-cholesterol | decrease of enzyme activity [3]: 30%

CC(C)CCC[C@@H](C)[C@H]1CC[C@H]2[C@@H]3CC=C4C[C@H](O)CC[C@]4(C)[C@H]3CC[C@]12C [epicholesterol, 5-cholesten-3α-ol]
rank order of inhibition of cholesterol 25-hydroxylase [3]: desmosterol>cholestanol>25-hydroxycholesterol>epicholesterol>sitosterol>>coprostanol=25-oxo-27-nor-cholesterol

CC[C@H](CC[C@@H](C)[C@H]1CC[C@H]2[C@@H]3CC=C4C[C@@H](O)CC[C@]4(C)[C@H]3CC[C@]12C)C(C)C [sitosterol, 5-cholesten-24β-ethyl-3β-ol]
rank order of inhibition of cholesterol 25-hydroxylase [3]: desmosterol>cholestanol>25-hydroxycholesterol>epicholesterol>sitosterol>>coprostanol=25-oxo-27-nor-cholesterol
